Earlier results in US20070059354A1 (priority 2005, published 2007).

solubility in water: practically insoluble in water
SMILES: NC(=O)N1c2ccccc2CC(=O)c2ccccc21 [Oxcarbazepine]
